Laboratory results as given in patent US8426644B2, “Compositions and methods for inhibiting an isoform of human manganese superoxide dismutase” (MitoTek, LLC, priority 2005, dated 2013).
Substitutions are numbered along the chain they refer to.

How the values were obtained:
[1] = system: AMP kinase phosphorylation at Thr172; experiment: Doxorubicin-induced activation of AMP kinase in heart explants, western immunoblot (Example 22); type: cell-based; conditions: rat heart explants
Protocol: Hearts from 4 week rats were excised and minced without trypsin in 50:50 medium M199:MCDB 10% FBA containing 5 mM Creatine, 2 mM L-carnitine and 5 mM taurine. Explants were incubated overnight at 37° C. in a 5% CO2 incubator untreated (Lane 1), with 1 mM doxorubicin (Lane 2), and with 1 mM doxorubicin and 4 μM 2-(3,4-dihydroxy-phenyl)-N-heptadec-8-enyl-acetamide (IV) (Lane 3). Explants were frozen at −70° C., liquid nitrogen powders were prepared and lysed and denatured in 2% SDS with 5% BME with boiling for 5 min. Protein extracts were examined by western immunoblotting using a rabbit monoclonal recognizing Phospho-AMP Kinase-α (Thr172) (CellSignal).
The AMP kinase was activated by an elevated AMP(high)/ATP(low) ratio due to cellular and environmental stress, such as heat shock, hypoxia and ischemia. Elevated AMP/ATP ratio and activation of AMPK by phosphorylation at Thr172 can also occur by uncoupling mitochondrial oxidative phosphorylation from respiration with oligomycin and thereby loss of mitochondrial ATP synthesis.

isoMnSOD expression = experiment: Doxorubicin induction of isoMnSOD expression in adult heart explants, Western Blot (Example 9); type: cell-based, rat; conditions: 3 days, 0.1 nM to 1.0 μM Doxorubicin in AdvDMEM 2% FBS, FIG. 3
Protocol: Briefly, after rats (5 weeks old) were killed by decapitation, the hearts were aseptically excised and residual blood was removed. The heart was perfused in Joklik's medium (containing Joklik's minimal essential medium, 25 mmol/L glutamic acid, 30 mmol/L taurine, and 1 mmol/L adenosine) without recirculation on a modified Langendorff apparatus for approximately 10 minutes at 37° C. The perfusion was then continued for 30 minutes at the same temperature, with recirculation in Joklik's medium containing collagenase type II (100 U/mL). After perfusion, the ventricles were cut into small pieces and tritulated in 0.05% Trypsin/EDTA for 10 min. Cardiac explants were cultured overnight on laminin-coated (20 μg per well) 35-mm six-well plates in medium 199 containing 5% FBS, 5 mM creatine, 2 mM L-carnitine, and 5 mM taurine. Explants were treated with doxorubicin (Sigma) shortly after plating for 24 hrs at 1 mM.

[2] = system: altMnSODreport reporter expression; experiment: Reporter gene system (altMnSODreport) to analyze compounds for toxicity (Example 17); type: cell-based; conditions: cells comprising the reporter gene system; written in present tense
Source text: The test reporter system utilizes a recombinant DNA construct that contains an in frame fusion of a genomic fragment spanning MnSOD Exon 2 to Exon 4, but which also harbors a mutant MnSOD Exon 3, (i.e. frameshift mutation), to a B-galactosidase gene, or Green Fluorescence Protein (“altMnSODreport”). Alternative splicing and skipping of MnSOD (coding) Exon 3 will result in a fusion protein comprising a short stretch of MnSOD E2 and E4 coding sequences N-terminal to a reporter protein; the MnSODE2E4 amino acid sequence is 20 amino acids and should not interfere with the expression of the reporter. […]
Breast cancer cell line, MDA-MB-435, Her-2/neu over-expressing (ATCC), fibroblast cells lines NIH3T3 and B104, which are NIH3T3 cells transfected with the rat ErbB2/Her2 oncogene, and normal primary cells (Clonetics; rat cardiomyocytes, donated by Kathryn Maschhoff, MD PhD, Neonatology, University of Pennsylvania) are treated with doxorubicin alone and in combination with the rat ErbB2/Her2 17.6.4 monoclonal antibody, which downregulates the human and rat Her2 receptor (Zhang et al., 1999) (Oncogene), and Herceptin™ (Genentech). It is also determined if the Her2 mAbs induces isoMnSOD expression in untransfected cells and cells transfected with altMnSODreport. […]

isoMnSOD [3] = molecular target: T1, isoMnSOD (Mus musculus, UniProt P09671, DEL77-115); experiment: isoMnSOD peroxidative activity, cerebellum mitochondrial extracts on nitrocellulose strips (Example 20); type: biochemical; conditions: 1 μM of compound, 30 min at room temperature; cerebellum of 4 week mice; 1 mM hydrogen peroxide, luminol; FIG. 7
T1 construct: Mitochondrial pellets were lysed in 1% CHAPS detergent; from tissue; host or cells: mouse cerebellum mitochondria
T1 sequence (P09671 with tags, fused parts or gaps DEL77-115): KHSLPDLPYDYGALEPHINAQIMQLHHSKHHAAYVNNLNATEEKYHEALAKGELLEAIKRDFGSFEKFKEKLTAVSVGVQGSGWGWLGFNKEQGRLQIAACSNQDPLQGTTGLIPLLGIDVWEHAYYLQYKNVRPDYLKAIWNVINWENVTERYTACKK
Protocol: Protein extracts containing isoMnSOD were prepared from cerebellum from 4 week mice by first forming a liquid nitrogen powder, resuspended with five volumes of ice-cold lysis buffer (in mM: 20 HEPES-KOH, pH 7.5, 10 KCl, 1.5 MgCl2, 1 DTT, 1 EDTA, 1 EGTA, and 0.1 PMSF) containing 70 mM mannitol and 250 mM sucrose and homogenizing with a Dounce homogenizer. Extract was centrifuged at 750 g for 10 min at 4° C. and the supernatant was then centrifuged at 10,000 g for 15 min at 4° C. to pellet the mitochondrial pellet, which was then stored frozen. Mitochondrial pellets were lysed in 1% CHAPS detergent containing 50 mM Tris-Cl, pH 8.0, 500 mM NaCl and then loaded onto a native 5% polyacrylamide gel. Protein concentration was measured by using the Bradford protein assay kit. After transfer to nitrocellulose, nitrocellulose strips were incubated with 1 μM of compound in 50 mM Tris-HCl, 50 mM NaCl, 5 mM EDTA, pH 8.0 for 30 min at room temperature, then washed extensively with incubation buffer alone. The peroxidative activity of isoMnSOD was measured using 100 of Femtomole luminol (Pierce) containing 1 mM hydrogen peroxide per nitrocellulose strip and exposed to x-ray film.

[4] = system: mitochondrial peroxidase activity (isoMnSOD); experiment: Peroxidative assay (ROS-activity blot) of mitochondrial extracts from treated pancreatic explants (Example 12); type: cell-based, pig; conditions: pancreatic explant cultured 1 hr at 37° C. with equal volume of 2 μM compound, FIG. 1
Protocol: F10 medium was used throughout the procedure. Pancreas (8 grams) from a 3 kilo pig was minced, washed twice, and 1 g of tissue was resuspended in 5 ml of F10 medium. […] Explants were stored frozen at −70° C. Tissue was homogenized in Buffer A at 4° C. and mitochondria was isolated by differential centrifugation and stored frozen at −70° C. Peroxidative assay of native mitochondrial extracts analyzed by the ROS-activity blot.

isoMnSOD [5] = experiment: Drug inhibition method: peroxidative activity of isoMnSOD on PVDF strips (Example 4); conditions: 1 μM test compound in TBS, 30 minutes; pancreatic mitochondria native extracts on PVDF; 1 mM H2O2, luminol; FIG. 4
Protocol: Each test compound was prepared by mixing 5 μL of a 1 mM test compound stock solution in ethanol with 5 μL of 0.1 M KOH, followed by the addition of 5 ml of TBS for a final concentration of 1 μM test compound. Equal amounts of native protein extracts from pancreatic mitochondria (obtained according to the protocol of Example 5) were loaded in separate wells and resolved in a 7% PAGE gel without SDS, electrotransferred to PVDF and divided into strips. Each PVDF strip was incubated with 1 μM of test compound in TBS for 30 minutes, washed twice in TBS for 20 minutes, and the peroxidative activity of isoMnSOD was measured by incubation of each strip with 1 mM H2O2 in 0.4 ml of the luminol solution contained within the Femtomole chemiluminescence assay kit (Pierce) and exposed to x-ray film (FIG. 4).
All procedures were carried out at 4° C. Mitochondria were obtained from a liquid nitrogen powder of one pig pancreas (˜8 g), which was resuspended in 15 ml of buffer A containing following protease inhibitors: 1 μg/ml aprotinin, 1 μg/ml pepstatin A, 1 μg/ml chymostatin A, 2 μg/ml leupeptin, 2 μM benzamide hydrochloride, and 1 μM phenylmethylsulfonyl fluoride. Tissue was broken with a Potter homogenizer and the homogenate was centrifuged for 10 min at 800 g to remove cell debris. The supernatant was centrifuged at 10,000 g from 15 min to recover mitochondria. The mitochondrial pellet was washed twice with a hand held Dounce homogenizer and mitochondria were stored frozen. Mitochondria were lysed by slowly adding 1 ml of M-Per (Pierce) containing 1/10 vol 5M NaCl and 1/10 vol Buffer A. The mitochondrial lysate was subsequently clarified by centrifugation for 10 min at 2000 g.

isoMnSOD [6] = experiment: Inhibition of pro-oxidant activity of isoMnSOD, at least one of the assays of the Examples; conditions: according to at least one of the assays provided in the Examples
[7] = system: PC12 neuroendocrine cell line; experiment: Hydrogen peroxide-mediated cell death, Live/Dead assay (Example 21); type: cell-based; conditions: PC12 preincubated with 4 μM for 1 hr, then 1 mM hydrogen peroxide, 20 hrs; FIG. 8
Protocol: Neuroendocrine cell line, PC12, was cultured in DMEM medium containing 10% FBS on plates treated with collagen. Freshly passed cells (1×10(7) cells) were preincubated with 4 μM 2-(3,4-dihydroxy-phenyl)-N-heptadec-8-enyl-acetamide (IV), 2-(2,5-dihydroxy-phenyl)-N-heptadec-8-enyl-acetamide (V) (containing about 30% impurity), or other compound for 1 hr and then treated with 1 mM hydrogen peroxide. After 20 hrs, cultures were examined by the Live/Dead assay (Molecular Probes).

Rats = experiment: Doxorubicin-induced heart failure in rats (Example 23); type: in vivo, rat; conditions: IP 10 mg/kg doxorubicin, FIG. 10
Protocol: Rats were treated with IP injections of 10 mg/kg doxorubicin. Left Ventricular Developed Pressure (LVDP): Systolic Pressure-Diastolic Pressure, which is an indicator of ventricular systolic function; dP/dtmax: Maximal rate of pressure development, which is an indicator of ventricular systolic function; dP/dtmin Minimal rate of pressure development, which is an indicator of ventricular diastolic function.

isoMnSOD [8] = molecular target: T2, isoMnSOD (Rattus norvegicus, UniProt P07895, DEL77-115); experiment: Immunodetection of isoMnSOD in treated cerebella explants (Example 24); type: cell-based; conditions: cerebella explants of 4 week rat, one hour at 37° C., 5 μM OA-diHPAc; western immunoblot
T2 construct: Cerebella explants from one 4 week rat, strain WKY; from tissue; host or cells: rat (WKY) cerebellum explants
T2 sequence (P07895 with tags, fused parts or gaps DEL77-115): T1 sequence (P09671 with tags, fused parts or gaps DEL77-115) with A33T, A40V, T151S, E152Q, T155I, A156V
Protocol: Immuno detection of isoMnSOD and measurement of isoMnSOD (a) and measurement of caspase 9 cleavage (b) in cerebella explants from 4 week old rat cerebellum and treated with 2-(3,4-dihydroxy-phenyl)-N-heptadec-8-enyl-acetamide (IV). Cerebella explants from one 4 week rat, strain WKY, were incubated in aerated 4 mL of M199:MCDB 10% FBS and incubated one hour at 37° C. in a roller bottle for maximum oxygenation, with or without 5 μM OA-diHPAc. Explants were harvested, quick frozen, and then lysed in boiling SDS and 5% BME and protein extracts were separated in a 4-12% polyacrylamide gel (Novex) and examined by western immunoblot. […] The peptide sequence used as the antigen to form the MnSOD E2/E4 antibody is at the active site of isoMnSOD and modification of isoMnSOD by 2-(3,4-dihydroxy-phenyl)-N-heptadec-8-enyl-acetamide (IV) appears to block epitope recognition. RT/PCR analysis of the MnSOD mRNAs confirmed that the mRNA encoding isoMnSOD is present in treated explants.

[9] = molecular target: T3, MnSOD-Exon3-deleted isoform (isoMnSOD) (Homo sapiens, UniProt P04179); experiment: Detection of inhibitors bound to isoMnSOD by combined immunoprecipitation/western blot (Example 13); type: binding; conditions: immunoprecipitation with anti-dopamine or anti-serotonin antibody, isoMnSOD detected; FIG. 2A, 2B
T3 sequence (P04179 25-183 isoform P04179-2 limits assumed): T1 sequence (P09671 with tags, fused parts or gaps DEL77-115) with A40V, H46Q, E66D, V75A, Q93R, R95H, S102P, T155M
Protocol: Covalent modification of the MnSOD-Exon3-deleted isoform was measured by a combined immunoprecipitation/western blot analysis. Immunoblots for detecting AA-DA, EPA-DA, DHA-DA, C18:4(ω-3)-DA adducts were performed using anti-dopamine rabbit polyclonal (Chemicon) and anti-serotonin goat polyclonal antibodies (ImmunoStar), respectively. After immunoprecipitating using an antibody against the inhibitor, isoMnSOD was detected as described above.

Molecule | Inhibition (isoMnSOD [3]) | inhibition of mitochondrial peroxidase activity [4] | inhibition of peroxidative activity of isoMnSOD (isoMnSOD [5]) | inhibition of pro-oxidant activity of isoMnSOD (isoMnSOD [6]) | binding to isoMnSOD (covalent modification) [9] | other results
COc1cccc2c1C(=O)c1c(O)c3c(c(O)c1C2=O)C[C@@](O)(C(=O)CO)C[C@@H]3O[C@H]1C[C@H](N)[C@H](O)[C@H](C)O1 [Doxorubicin] |  |  |  |  |  | Activation of AMP kinase by phosphorylation at Thr172 ([1]; 1 mM doxorubicin overnight, FIG. 9 Lane 2): Activation; isoMnSOD expression (isoMnSOD expression): induced isoMnSOD expression; expression of altMnSOD report [2]: causes an increase
CCCCCCCC/C=C\CCCCCCCNC(=O)Cc1cc(O)ccc1O [2-(2,5-dihydroxy-phenyl)-N-heptadec-8-enyl-acetamide] | yes |  |  |  |  | 
Arachidonic acid-biotinimide | yes |  |  |  |  | 
CC/C=C\C/C=C\C/C=C\C/C=C\C/C=C\CCCC(=O)NCCc1ccc(O)c(O)c1 [eicosapentaenoyl (EPA)-dopamine, eicosapentaenoyl dopamine] |  | did not inhibit peroxidase activity to the same effect | inhibit peroxidative activity more significantly than the other compounds | inhibit pro-oxidant activity of isoMnSOD |  | 
CCCCCCCC/C=C\CCCCCCCNC(=O)Cc1ccc(O)c(O)c1 [2-(3,4-dihydroxy-phenyl)-N-heptadec-8-enyl-acetamide] | yes |  |  |  |  | Protection of hydrogen peroxide-mediated cell death [7]: Protection; suppression of doxorubicin-induced AMP kinase activation ([1]; 1 mM doxorubicin and 4 μM compound overnight, FIG. 9 Lane 3): suppresses this activation; cardio protection of doxorubicin-induced heart failure (LVDP, dP/dtmax, dP/dtmin) (Rats): exerts cardio protection; antigenicity of isoMnSOD with MnSOD E2/E4 peptide antibody and MnSOD antibody (isoMnSOD [8]): loss of antigenicity with the MnSOD E21E4 peptide antibody but not with the MnSOD antibody
CCCCC/C=C\C/C=C\C/C=C\C/C=C\CCCC(=O)NCCc1c[nH]c2ccc(O)cc12 [arachidonoyl-serotonin, arachidonoyl serotonin] |  | inhibited the mitochondrial peroxidase activity |  | inhibit pro-oxidant activity of isoMnSOD | able to bind to isoMnSOD | 
C18:4(ω-3)-dopamine |  | inhibited the mitochondrial peroxidase activity | inhibit peroxidative activity more significantly than the other compounds | inhibit pro-oxidant activity of isoMnSOD | able to bind to isoMnSOD | 
Prostaglandin A1-biotinimide | yes |  |  |  |  | 
CC/C=C\C/C=C\C/C=C\C/C=C\C/C=C\C/C=C\CCC(=O)NCCc1ccc(O)c(O)c1 [docosahexaenoyl (DHA)-dopamine, docosahexaenoyl dopamine] |  | inhibited the mitochondrial peroxidase activity | inhibit peroxidative activity more significantly than the other compounds | inhibit pro-oxidant activity of isoMnSOD | able to bind to isoMnSOD | 
COC1=C(OC)C(=O)C(CCCCCCCCCCO)=C(C)C1=O [Idebenone] | no |  |  |  |  | 
